Measured values from PMC12430364, “Characterization of Human Recombinant β1,4-GalNAc-Transferase B4GALNT1 and Inhibition by Selected Compounds” (Molecules, 2025).
One block for each compound: values may come before it.

Legend:
Assay type in all cases: biochemical
[1] = molecular target: T1, β1,4-N-acetylgalactosaminyltransferase 1 (B4GALNT1, GM2 synthase) (Homo sapiens, UniProt Q00973); test: % inhibition at […], radiolabeled GalNAc transfer assay, purified enzyme
T1 construct: soluble His8-tagged, amino acids 1–25 deleted
T1 sequence (Q00973 26-533): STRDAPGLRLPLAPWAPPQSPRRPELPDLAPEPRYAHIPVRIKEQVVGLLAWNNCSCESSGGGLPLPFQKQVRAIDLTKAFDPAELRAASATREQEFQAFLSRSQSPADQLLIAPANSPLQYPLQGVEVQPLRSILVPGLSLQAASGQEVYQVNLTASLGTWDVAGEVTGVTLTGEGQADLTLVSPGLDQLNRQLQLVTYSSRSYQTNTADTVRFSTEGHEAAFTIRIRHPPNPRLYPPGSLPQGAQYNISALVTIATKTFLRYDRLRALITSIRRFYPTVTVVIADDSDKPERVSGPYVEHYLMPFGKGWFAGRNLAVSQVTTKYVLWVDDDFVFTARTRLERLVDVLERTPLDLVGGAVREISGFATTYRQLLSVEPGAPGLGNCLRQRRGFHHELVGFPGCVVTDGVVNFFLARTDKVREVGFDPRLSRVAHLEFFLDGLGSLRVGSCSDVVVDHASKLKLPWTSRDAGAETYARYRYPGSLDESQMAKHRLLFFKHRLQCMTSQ

[2] = molecular target: T1, β1,4-N-acetylgalactosaminyltransferase 1 (B4GALNT1, GM2 synthase); test: radiolabeled GalNAc transfer assay, purified enzyme, apparent KM
[3] = molecular target: T1, β1,4-N-acetylgalactosaminyltransferase 1 (B4GALNT1, GM2 synthase); test: radiolabeled UDP-[3H]GalNAc transfer to GM3, purified enzyme; […] inhibition at […] and IC50

inhibition at 1000 µM [1]: 44%
Compound: CCCC(=O)N[C@@H]1[C@@H](O)[C@H](O)[C@@H](CO)O[C@H]1Sc1ccc2ccccc2c1 [compound 612, 2-naphthyl 2-butanamido-2-deoxy-1-thio-β-D-glucopyranoside]

Km [2]: 500 µM
Compound: GM3

Compound: CCCCCCCCCCC[n+]1ccn(CCCCCCn2cc[n+](CCCCCCCCCCC)c2)c1 [QT163]
IC50 [3]: 200 µM
